Residues, ends and D or L forms follow the SMILES beside them.
Tests used:
[1] = test system: SARS-CoV-2 (nCoV/USA_WA1/2020)
SARS-CoV-2 = details: 1 h

CC[C@H](C)[C@H](NC(=O)[C@@H]1CCCN1C(=O)[C@@H]1CCCN1C(=O)[C@@H](NC(=O)[C@H](Cc1c[nH]c2ccccc12)NC(=O)[C@H](CCCCN)NC(=O)[C@H](CC(C)C)NC(=O)[C@@H](NC(=O)[C@H](CCCCN)NC(=O)CNC(=O)[C@@H](NC(=O)[C@H](CCCCN)NC(=O)[C@H](CCCCN)NC(=O)[C@H](CC(C)C)NC(=O)[C@H](CCCNC(=N)N)NC(=O)[C@H](CCCCN)NC(=O)[C@H](CCCNC(=N)N)NC(=O)[C@@H](NC(=O)[C@H](CCCCN)NC(=O)[C@H](CCCCN)NC(=O)[C@H](CCCNC(=N)N)NC(=O)[C@H](CC(C)C)NC(=O)[C@H](CCCNC(=N)N)NC(=O)[C@H](CCCNC(=N)N)NC(=O)[C@H](Cc1ccccc1)NC(=O)[C@H](CCCNC(=N)N)NC(=O)CNC(=O)[C@@H](N)C(C)C)[C@@H](C)O)[C@@H](C)CC)C(C)C)[C@@H](C)CC)C(=O)O [p9C] (H-VGRFRRLRKKTRKRLKKIGKVLKWIPPI-OH)
anti-SARS-CoV-2 activity relative to PMAP-36R (in words) [1]: none

CC[C@H](C)[C@H](NC(=O)[C@H](CCCCN)NC(=O)[C@H](CCCCN)NC(=O)[C@@H](N)CC(C)C)C(=O)NCC(=O)N[C@@H](CCCCN)C(=O)N[C@H](C(=O)N[C@@H](CC(C)C)C(=O)N[C@@H](CCCCN)C(=O)N[C@@H](Cc1c[nH]c2ccccc12)C(=O)N[C@H](C(=O)N1CCC[C@H]1C(=O)N1CCC[C@H]1C(=O)N[C@H](C(=O)N[C@H](C(=O)NCC(=O)N[C@@H](CO)C(=O)N[C@H](C(=O)N1CCC[C@H]1C(=O)N[C@@H](CC(C)C)C(=O)NCC(=O)N[C@@H](CS)C(=O)NCC(=O)O)[C@@H](C)CC)C(C)C)[C@@H](C)CC)[C@@H](C)CC)C(C)C [p14N] (H-LKKIGKVLKWIPPIVGSIPLGCG-OH)
anti-SARS-CoV-2 activity relative to PMAP-36R (in words) [1]: no inhibition

CC[C@H](C)[C@H](NC(=O)[C@H](CO)NC(=O)CNC(=O)[C@@H](NC(=O)[C@@H](NC(=O)[C@@H]1CCCN1C(=O)[C@@H]1CCCN1C(=O)[C@@H](NC(=O)[C@H](Cc1c[nH]c2ccccc12)NC(=O)[C@H](CCCCN)NC(=O)[C@H](CC(C)C)NC(=O)[C@@H](NC(=O)[C@H](CCCCN)NC(=O)CNC(=O)[C@@H](NC(=O)[C@H](CCCCN)NC(=O)[C@H](CCCCN)NC(=O)[C@H](CC(C)C)NC(=O)[C@H](CCCNC(=N)N)NC(=O)[C@H](CCCCN)NC(=O)[C@H](CCCNC(=N)N)NC(=O)[C@@H](NC(=O)[C@H](CCCCN)NC(=O)[C@H](CCCCN)NC(=O)[C@H](CCCNC(=N)N)NC(=O)[C@H](CC(C)C)NC(=O)[C@H](CCCNC(=N)N)NC(=O)[C@H](CCCNC(=N)N)NC(=O)[C@H](Cc1ccccc1)NC(=O)[C@H](CCCNC(=N)N)NC(=O)CNC(=O)[C@@H](N)C(C)C)[C@@H](C)O)[C@@H](C)CC)C(C)C)[C@@H](C)CC)[C@@H](C)CC)C(C)C)C(=O)O [p5C] (H-VGRFRRLRKKTRKRLKKIGKVLKWIPPIVGSI-OH)
anti-SARS-CoV-2 activity relative to PMAP-36R (in words) [1]: little inhibitory activity

CC[C@H](C)[C@H](NC(=O)[C@H](CCCNC(=N)N)NC(=O)[C@@H]1CCCN1C(=O)[C@@H](NC(=O)[C@@H]1CCCN1C(=O)[C@H](Cc1ccccc1)NC(=O)[C@H](CO)NC(=O)[C@@H]1CCCN1C(=O)[C@@H]1CCCN1C(=O)[C@H](Cc1ccccc1)NC(=O)[C@H](Cc1c[nH]c2ccccc12)NC(=O)[C@@H]1CCCN1C(=O)[C@@H]1CCCN1C(=O)[C@@H]1CCCN1C(=O)[C@H](Cc1c[nH]c2ccccc12)NC(=O)[C@H](CCC(N)=O)NC(=O)[C@H](Cc1c[nH]c2ccccc12)NC(=O)[C@H](CCCNC(=N)N)NC(=O)[C@H](CC(C)C)NC(=O)[C@@H]1CCCN1C(=O)[C@@H](NC(=O)[C@@H]1CCCN1C(=O)[C@H](Cc1c[nH]c2ccccc12)NC(=O)[C@H](Cc1ccccc1)NC(=O)[C@@H]1CCCN1C(=O)[C@@H](NC(=O)[C@H](CCCNC(=N)N)NC(=O)[C@@H](N)CCCNC(=N)N)[C@@H](C)CC)[C@@H](C)CC)[C@@H](C)CC)C(=O)N[C@@H](CO)C(=O)N[C@@H](CCCNC(=N)N)C(=O)N[C@@H](CCCCN)C(=O)N[C@@H](CCCNC(=N)N)C(=O)O [Beluga 1] (H-RRIPFWPIPLRWQWPPPWFPPSFPIPRISRKR-OH; N-terminus and C-terminus assumed)
SARS-CoV-2 inhibition at 50 µM (SARS-CoV-2): > 50%

CC[C@H](C)[C@H](NC(=O)[C@H](CCCCN)NC(=O)[C@H](CCCCN)NC(=O)[C@H](Cc1ccccc1)NC(=O)[C@H](Cc1ccccc1)NC(=O)[C@H](CCCCN)NC(=O)[C@H](CCCCN)NC(=O)[C@H](Cc1ccccc1)NC(=O)[C@H](CCCNC(=N)N)NC(=O)[C@@H](N)CCCCN)C(=O)N[C@@H](CCCCN)C(=O)N[C@@H](CCCCN)C(=O)N[C@@H](CO)C(=O)N[C@H](C(=O)N[C@@H](CCCCN)C(=O)N[C@@H](CCCCN)C(=O)N[C@@H](CCCNC(=N)N)C(=O)N[C@H](C(=O)N[C@@H](CCCCN)C(=O)N[C@@H](CCCCN)C(=O)N[C@@H](CC(C)C)C(=O)N[C@@H](Cc1ccccc1)C(=O)N[C@@H](CCCCN)C(=O)N[C@@H](CCCCN)C(=O)N1CCC[C@H]1C(=O)N[C@@H](CCCNC(=N)N)C(=O)N[C@H](C(=O)N[C@H](C(=O)N1CCC[C@H]1C(=O)N[C@H](C(=O)N[C@@H](CO)C(=O)N[C@H](C(=O)N1CCC[C@H]1C(=O)N[C@@H](Cc1ccccc1)C(=O)O)[C@@H](C)CC)[C@@H](C)CC)[C@@H](C)CC)C(C)C)C(C)C)C(C)C [TS] (H-KRFKKFFKKIKKSVKKRVKKLFKKPRVIPISIPF-OH; N-terminus and C-terminus assumed)
SARS-CoV-2 inhibition at 50 µM (SARS-CoV-2): > 50%

CC[C@H](C)[C@H](NC(=O)[C@H](CCCCN)NC(=O)[C@H](CCCCN)NC(=O)[C@H](CC(C)C)NC(=O)[C@H](CCCNC(=N)N)NC(=O)[C@H](CCCCN)NC(=O)[C@H](CCCNC(=N)N)NC(=O)[C@@H](NC(=O)[C@H](CCCCN)NC(=O)[C@H](CCCCN)NC(=O)[C@H](CCCNC(=N)N)NC(=O)[C@H](CC(C)C)NC(=O)[C@H](CCCNC(=N)N)NC(=O)[C@H](CCCNC(=N)N)NC(=O)[C@H](Cc1ccccc1)NC(=O)[C@H](CCCNC(=N)N)NC(=O)CNC(=O)[C@@H](N)C(C)C)[C@@H](C)O)C(=O)NCC(=O)N[C@@H](CCCCN)C(=O)N[C@H](C(=O)N[C@@H](CC(C)C)C(=O)N[C@@H](CCCCN)C(=O)N[C@@H](Cc1c[nH]c2ccccc12)C(=O)N[C@H](C(=O)N1CCC[C@H]1C(=O)N1CCC[C@H]1C(=O)N[C@H](C(=O)N[C@H](C(=O)NCC(=O)N[C@@H](CO)C(=O)N[C@H](C(=O)N1CCC[C@H]1C(=O)N[C@@H](CC(C)C)C(=O)NCC(=O)N[C@@H](CS)C(=O)NCC(=O)O)[C@@H](C)CC)C(C)C)[C@@H](C)CC)[C@@H](C)CC)C(C)C [PMAP-36R] (H-VGRFRRLRKKTRKRLKKIGKVLKWIPPIVGSIPLGCG-OH)
hemolytic activity (in words) (human red blood cells): considerable hemolytic activity | Vero TD50 48 h (Vero hACE2 cells): 23.47 µM | HEK293T TD50 (HEK293T cells): 24.61 µM | SARS-CoV-2 inhibition at 50 µM (SARS-CoV-2): > 50%

Source: article PMC10480232 (Scientific Reports, 2023)
